System: Meloidogyne javanica
Assay: Nematicide activity against infective juveniles (J2)
Format: in vivo
Method: The assays were carried out according to the methodology described for Meloidogyne sp (Hernández-Carlos et al. 2011, Sosa et al. 2012) using the biological stage of infected juvenile (J2) Meloidogyne javanica in the assays. The activity of each product was quantified at different concentrations, shown in Table 5 and in at least four copies, each bio-assay was repeated at least three times and the nematostatic/nematicide activity was determined from the percentage of infected juvenile plants immobilised/which died.

## C=C/C(C)=C\CC(O)C(C)(C)O (stereo not shown) [(Z)-2,6-dimethylocta-5,7-diene-2,3-diol]
Concentration 0.02 μg/μl
  M. javanica % J2 immobilised Average: 4.2%
Concentration 0.1 μg/μl
  M. javanica % J2 immobilised Average: 19.7%
Concentration 0.25 μg/μl
  M. javanica % J2 immobilised Average: 43.9%
Concentration 0.5 μg/μl
  M. javanica % J2 immobilised Average: 100%
